From US20240245711A1, “A 19-NOR C3,3-DISUBSTITUTED C21-N-PYRAZOLYL STEROID FOR THE TREATMENT OF MAJOR DEPRESSIVE DISORDER” (Sage Therapeutics, Inc., priority 2021, published 2024)
Values joined by “and” are separate entries in the source; they are usually repeats but may differ in a detail not shown here. Identical values can stand only once.

Test system: adult subjects with Major Depressive Disorder
Assay: Phase 3 open-label 1-year study: HAM-D total score, response and remission
Type: in vivo, human
From the text: Secondary Objective: To assess the need for re-treatment with Compound (1) following initial treatment in adults with MDD currently experiencing an MDE over a 1-year period, and to assess the response of initial treatment and re-treatment(s) with Compound (1) following an initial 2-week treatment period in adults with MDD currently experiencing an MDE over a 1-year period.
Secondary Endpoints: The need for re-treatment with Compound (1) as assessed by: time to first re-treatment (Kaplan-Meier curves), number of subjects achieving the requirements for re-treatment, number of re-treatment cycles for each subject, the response of initial treatment and/or re-treatment as assessed by: change from baseline in the 17-item Hamilton Rating Scale for Depression (HAM-D) total score at the end of each 14-day treatment (initial and/or re-treatment) period, HAM-D response at the end of each 14-day treatment (initial and/or re-treatment) period, defined as a ≥50% reduction in HAM-D score from baseline, HAM-D remission at the end of each 14-day treatment (initial and/or re-treatment) period, defined as HAM-D total score≤7, Clinical Global Impression-Improvement (CGI-I) response, defined as “much improved” or “very much improved”, at the end of each 14-day treatment (initial and/or re-treatment) period, change from baseline in Clinical Global Impression-Severity (CGI-S) score at the end of each 14-day treatment (initial and/or re-treatment) period.
Study Population: Subjects were 18-75 years old, diagnosed with major depressive disorder (MDD) with a MADRS total score of ≥28 and a HAM-D total score of ≥20 at Screening and Day 1 (prior to dosing).
Treatment Groups: The 30 mg and 50 mg dose groups were separated by time of enrollment. The study is comprised of two cohorts: one with Compound (1) 30 mg as a starting dose (30 mg Cohort: n=725), an initial cohort with Compound (1) 50 mg as a starting dose (50 mg Cohort: n=199). A patient receiving Compound (1) 30 mg could be dose reduced to 20 mg and patients receiving Compound (1) 50 mg could be dose reduced to 40 mg (based on tolerability). In all cohorts, Compound (1) is self-administered by patients as an oral therapy once nightly with food for 14 days.
Eligible subjects were given Compound (1)—to be taken at home in the evening with meal.
The cohorts pertaining to the different doses that the subjects received were defined as following: • 50 mg cohort: This cohort includes subjects who have initiated treatment with 50 mg and received re-treatment with 50 mg only. • 30 mg cohort: This cohort includes subjects who have initiated treatment with 30 mg regardless of the dose they have received in re-treatments. • Low dose cohort: This cohort includes subjects who have initiated treatment with 30 mg and received re-treatment with 30 mg only. • Dose switch cohort: This cohort includes subjects who have received initial treatment with 30 mg and at least one subsequent re-treatment with 50 mg. • Study Period X: starts on the date of the first dose of Compound (1) in cycle X and goes up to one day prior to the first dose of the next cycle. In some embodiments, X is any number from 1 to 5. • Treatment Period X: starts on the date of the first dose of Compound (1) in cycle X and goes up to one day after the last dose in cycle X. In some embodiments, X is any number from 1 to 5. • Treatment Cycle X: starts on the date of the first dose of Compound (1) in cycle X and goes up to 14 days after the last dose in cycle X. The treatment cycles may be denoted as C1-C5. • Observation period X: starts the day after Treatment Cycle X ends and goes up to one day prior to the start of next treatment cycle. In some embodiments, X is any number from 1 to 5.
Analysis Sets: The safety set was defined as all subjects who were administered study drug. The period-specific safety set includes subjects in the safety set who were administered study drug in the corresponding treatment cycle. […]

[1] = baseline HAM-D score ≥24, Study Period 1, 50 mg Cohort (N = 127), Day 28
[2] = baseline HAM-D score ≥24, Study Period 1, 50 mg Cohort (N = 127), Day 70
[3] = baseline HAM-D score ≥24, Study Period 1, 50 mg Cohort (N = 127), Day 126
[4] = baseline HAM-D score ≥26, Study Period 1, 30 mg Cohort (N = 327), Day 8
[5] = baseline HAM-D score ≥26, Study Period 1, 30 mg Cohort (N = 327), Day 15
[6] = baseline HAM-D score ≥26, Study Period 1, 30 mg Cohort (N = 327), Day 28
[7] = baseline HAM-D score ≥26, Study Period 1, 30 mg Cohort (N = 327), Day 70
[8] = baseline HAM-D score ≥26, Study Period 1, 30 mg Cohort (N = 327), Day 126
[9] = baseline HAM-D score ≥26, Study Period 1, 50 mg Cohort (N = 85), Day 8
[10] = baseline HAM-D score ≥26, Study Period 1, 50 mg Cohort (N = 85), Day 15
[11] = baseline HAM-D score ≥26, Study Period 1, 50 mg Cohort (N = 85), Day 28
[12] = baseline HAM-D score ≥26, Study Period 1, 50 mg Cohort (N = 85), Day 70
[13] = baseline HAM-D score ≥26, Study Period 1, 50 mg Cohort (N = 85), Day 126

With `C[C@@]1(O)CC[C@H]2[C@H](CC[C@@H]3[C@@H]2CC[C@]2(C)[C@@H](C(=O)Cn4cc(C#N)cn4)CC[C@@H]32)C1` [Compound (1), 1-(2-((3R,5R,8R,9R,10S,13S,14S,17S)-3-hydroxy-3,13-dimethylhexadecahydro-1H-cyclopenta[a]phenanthren-17-yl)-2-oxoethyl)-1H-pyrazole-4-carbonitrile] the “HAM-D Response” value [1] was 74/120 (61.7%), the “HAM-D total score, Mean % CFB ± SD” value [1] was −58.0 ± 25.97% and the “HAM-D total score, Mean CFB ± SD” value [1] was −15.7 ± 7.17. The “HAM-D Remission” value [2] was 26/79 (32.9%), the “HAM-D Response” value [2] was 43/79 (54.4%) and the “HAM-D total score, Mean % CFB ± SD” value [2] was −53.0 ± 28.53%. The “HAM-D total score, Mean CFB ± SD” value [2] was −14.4 ± 7.93, the “HAM-D Remission” value [3] was 13/17 (76.5%) and the “HAM-D Response” value [3] was 14/17 (82.4%). For the same molecule, the “HAM-D total score, Mean % CFB ± SD” value [3] was −74.8 ± 27.94%, the “HAM-D total score, Mean CFB ± SD” value [3] was −19.9 ± 8.10 and the “HAM-D Response” value [4] was 138/319 (43.3%). For the same molecule, the “HAM-D total score, Mean % CFB ± SD” value [4] was −43.7 ± 25.84%, the “HAM-D total score, Mean CFB ± SD” value [4] was −12.6 ± 7.44 and the “HAM-D Response” value [5] was 220 (71.4%) and 220/308 (71.4%). For the same molecule, the “HAM-D total score, Mean % CFB ± SD” value [5] was −60.6 ± 26.28%, the “HAM-D total score, Mean CFB ± SD” value [5] was −17.6 ± 7.77 and the “HAM-D Response” value [6] was 184/305 (60.3%). The “HAM-D total score, Mean % CFB ± SD” value [6] was −55.6 ± 28.46%, the “HAM-D total score, Mean CFB ± SD” value [6] was −16.2 ± 8.48 and the “HAM-D Response” value [7] was 87/170 (51.2%). The “HAM-D total score, Mean % CFB ± SD” value [7] was −49.8 ± 32.15%, the “HAM-D total score, Mean CFB ± SD” value [7] was −14.7 ± 9.65 and the “HAM-D Response” value [8] was 60/82 (73.2%). The “HAM-D total score, Mean % CFB ± SD” value [8] was −65.6 ± 28.15%, the “HAM-D total score, Mean CFB ± SD” value [8] was −19.1 ± 8.11 and the “HAM-D Remission” value [9] was 13/82 (15.9%). The “HAM-D Response” value [9] was 43/82 (52.4%), the “HAM-D total score, Mean % CFB ± SD” value [9] was −49.6 ± 21.15% and the “HAM-D total score, Mean CFB ± SD” value [9] was −14.0 ± 6.05. For the same molecule, the “HAM-D Remission” value [10] was 27 (33.8%) and 27/80 (33.8%), the “HAM-D Response” value [10] was 64 (80.0%) and 64/80 (80.0%) and the “HAM-D total score, Mean % CFB ± SD” value [10] was −64.3 ± 20.17%. For the same molecule, the “HAM-D total score, Mean CFB ± SD” value [10] was −18.2 ± 5.89, the “HAM-D Remission” value [11] was 26/80 (32.5%) and the “HAM-D Response” value [11] was 51/80 (63.8%). For the same molecule, the “HAM-D total score, Mean % CFB ± SD” value [11] was −58.5 ± 24.24%, the “HAM-D total score, Mean CFB ± SD” value [11] was −16.6 ± 7.05 and the “HAM-D Remission” value [12] was 18/56 (32.1%). The “HAM-D Response” value [12] was 30/56 (53.6%), the “HAM-D total score, Mean % CFB ± SD” value [12] was −52.9 ± 28.48% and the “HAM-D total score, Mean CFB ± SD” value [12] was −15.1 ± 8.23. The “HAM-D Remission” value [13] was 8/10 (80%), the “HAM-D Response” value [13] was 8/10 (80%) and the “HAM-D total score, Mean % CFB ± SD” value [13] was −74.2 ± 34.34%. The “HAM-D total score, Mean CFB ± SD” value [13] was −21.0 ± 10.12, the “HAM-D Remission” value (baseline HAM-D score ≥26, Study Period 1, Table 3: 30 mg Cohort (N = 327), Table 19 head: Low Dose Cohort (N = 327), Day 15) was 113 (36.7%) and 113/308 (36.7%) and the “HAM-D Remission” value (baseline HAM-D score ≥26, Study Period 1, Table 19: Low Dose Cohort (N = 327), Day 8) was 49/319 (15.4%). The “HAM-D Remission” value (baseline HAM-D score ≥26, Study Period 1, Table 19: Low Dose Cohort (N = 327), Day 28) was 94/305 (30.8%), the “HAM-D Remission” value (baseline HAM-D score ≥26, Study Period 1, Table 19: Low Dose Cohort (N = 327), Day 70) was 43/170 (25.3%) and the “HAM-D Remission” value (baseline HAM-D score ≥26, Study Period 1, Table 19: Low Dose Cohort (N = 327), Day 126) was 37/82 (45.1%).
